From patent publication US20260176320A1, “MODULATORS OF G-PROTEIN COUPLED RECEPTORS” (priority 2018, published 2026)
Read-outs that look alike come from different tables or passages of the source.

Key:
Format in all cases: cell-based
GLP-1R [1] = biological target: T1, GLP-1R (Homo sapiens, UniProt P43220); assay: HitHunter cAMP assay (GLP-1R); details: cAMP; for EC50: EC50 GLP-1R/nM; for Emax: read-out: (Emax) GLP-1R
How it was run: (§1)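 cAMP accumulation read by luminescent HitHunter immunocompetition after 30 min room-temperature agonist stimulation. Agonists tested as 22-point twofold dilutions, in duplicate, on 10,000 cells/well in HBSS containing 625 μM IBMX, 10 mM HEPES and 0.2% BSA.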

GLP-1R [2] = biological target: T1, GLP-1R; assay: PathHunter β-arrestin assay
How it was run: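 β-Arrestin recruitment measured by PathHunter enzyme-fragment luminescence, read after 3 h dark incubation at room temperature with detection solution. Beforehand, agonist in a 22-point 2-fold series was applied in duplicate for 90 min at 37 °C to 5,000 cells/well in BSA-containing (0.2%) medium.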

GIP-R = biological target: T2, GIP-R (Homo sapiens, UniProt P48546); assay: HitHunter cAMP assay (GIP-R); details: cAMP; for EC50: EC50 GIP-R/nM; for Emax: read-out: (Emax) GIP-R
T2 sequence (P48546 22-466): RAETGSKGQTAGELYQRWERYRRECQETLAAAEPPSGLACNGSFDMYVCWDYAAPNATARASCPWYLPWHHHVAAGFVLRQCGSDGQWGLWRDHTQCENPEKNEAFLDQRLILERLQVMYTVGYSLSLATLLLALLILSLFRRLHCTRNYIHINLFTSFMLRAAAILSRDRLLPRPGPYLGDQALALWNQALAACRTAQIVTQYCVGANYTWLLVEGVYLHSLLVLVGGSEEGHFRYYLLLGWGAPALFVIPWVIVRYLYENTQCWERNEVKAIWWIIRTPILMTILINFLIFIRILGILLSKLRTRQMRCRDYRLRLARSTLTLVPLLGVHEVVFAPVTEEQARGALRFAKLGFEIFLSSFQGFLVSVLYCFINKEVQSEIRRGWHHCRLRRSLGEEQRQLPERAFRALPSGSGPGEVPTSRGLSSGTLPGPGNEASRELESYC
How it was run: as §1

T1 sequence (P43220 24-463): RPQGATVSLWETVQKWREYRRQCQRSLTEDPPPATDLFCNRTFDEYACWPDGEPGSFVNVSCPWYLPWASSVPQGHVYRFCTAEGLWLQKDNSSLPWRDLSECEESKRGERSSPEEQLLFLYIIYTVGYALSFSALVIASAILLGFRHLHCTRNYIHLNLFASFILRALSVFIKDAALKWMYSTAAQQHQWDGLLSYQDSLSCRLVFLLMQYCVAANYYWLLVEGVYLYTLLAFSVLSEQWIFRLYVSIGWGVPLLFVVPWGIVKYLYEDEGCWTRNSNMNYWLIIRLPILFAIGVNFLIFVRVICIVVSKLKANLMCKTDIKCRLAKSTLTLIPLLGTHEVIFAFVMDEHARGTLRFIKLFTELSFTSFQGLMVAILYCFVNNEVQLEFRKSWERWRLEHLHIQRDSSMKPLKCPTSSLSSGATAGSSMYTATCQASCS

Row | Compound | EC50 (GLP-1R [1]; Table 3) [nM] | EC50 (GLP-1R [1]; Table 3A) [nM] | Emax (GLP-1R [1]; Table 3) [%] | Emax (GLP-1R [1]; Table 3A) [%] | EC50 (GLP-1R [2]) [nM] | EC50 (GIP-R; Table 3) [nM] | EC50 (GIP-R; Table 3A) [nM] | Emax (GIP-R; Table 3) [%] | Emax (GIP-R; Table 3A) [%] | Emax at 1 µM (GIP-R; read-out: (Emax) GIP-R at 1 μM, Table 3) [%] | Emax at 1 µM (GIP-R; read-out: (Emax) GIP-R at 1 μM, Table 3A) [%]
1 | CCCCCCCCCCCCCCCC(=O)N[C@@H](CCC(=O)NCCCC[C@H](NC(=O)[C@H](CO)NC(=O)[C@@H]1CCCN1C(=O)[C@@H]1CCCN1C(=O)[C@@H]1CCCN1C(=O)[C@H](C)NC(=O)CNC(=O)[C@H](CO)NC(=O)[C@H](CO)NC(=O)[C@@H]1CCCN1C(=O)CNC(=O)CNC(=O)[C@H](C)NC(=O)[C@H](CC(C)C)NC(=O)[C@H](CC(C)C)NC(=O)[C@H](Cc1c[nH]c2ccccc12)NC(=O)[C@H](CC(N)=O)NC(=O)[C@@H](NC(=O)[C@H](Cc1ccccc1)NC(=O)[C@H](CCC(=O)O)NC(=O)C(C)(C)NC(=O)[C@H](C)NC(=O)[C@H](C)NC(=O)[C@H](CCC(N)=O)NC(=O)[C@H](CCCCN)NC(=O)[C@H](CC(=O)O)NC(=O)[C@H](CC(C)C)NC(=O)[C@H](Cc1ccc(O)cc1)NC(=O)[C@@H](NC(=O)[C@H](CO)NC(=O)[C@H](Cc1ccc(O)cc1)NC(=O)[C@H](CC(=O)O)NC(=O)[C@H](CO)NC(=O)[C@@H](NC(=O)[C@H](Cc1ccccc1)NC(=O)[C@@H](NC(=O)CNC(=O)[C@H](CCC(=O)O)NC(=O)CSCC(=O)NCCN1C(=O)CC[C@H](C)C1=O)[C@@H](C)O)[C@@H](C)O)[C@@H](C)CC)C(C)C)C(N)=O)C(=O)O [Compound 92] | 1 to 10 | 1 to 10 | 94 to 104 | 94 to 104 | > 1000 | 0.1 to 1 | 0.1 to 1 | 85 to 88 | 85 to 88 | – | –
2 | CCCCCCCCCCCCCCCC(=O)N[C@@H](CCC(=O)NCCCC[C@H](NC(=O)[C@H](CO)NC(=O)[C@@H]1CCCN1C(=O)[C@@H]1CCCN1C(=O)[C@@H]1CCCN1C(=O)[C@H](C)NC(=O)CNC(=O)[C@H](CO)NC(=O)[C@H](CO)NC(=O)[C@@H]1CCCN1C(=O)CNC(=O)CNC(=O)[C@H](C)NC(=O)[C@H](CC(C)C)NC(=O)[C@H](CC(C)C)NC(=O)[C@H](Cc1c[nH]c2ccccc12)NC(=O)[C@H](CC(N)=O)NC(=O)[C@@H](NC(=O)[C@H](Cc1ccccc1)NC(=O)[C@H](CCC(=O)O)NC(=O)C(C)(C)NC(=O)[C@H](C)NC(=O)[C@H](C)NC(=O)[C@H](CCC(N)=O)NC(=O)[C@H](CCCCN)NC(=O)[C@H](CC(=O)O)NC(=O)[C@H](CC(C)C)NC(=O)[C@H](Cc1ccc(O)cc1)NC(=O)[C@@H](NC(=O)[C@H](CO)NC(=O)[C@H](Cc1ccc(O)cc1)NC(=O)[C@H](CC(=O)O)NC(=O)[C@H](CO)NC(=O)[C@@H](NC(=O)[C@H](Cc1ccccc1)NC(=O)[C@@H](NC(=O)CNC(=O)[C@H](CCC(=O)O)NC(=O)CSCC(=O)N(C)CCN1C(=O)CSC1=O)[C@@H](C)O)[C@@H](C)O)[C@@H](C)CC)C(C)C)C(N)=O)C(=O)O [Compound 93] | 0.1 to 1 | 0.1 to 1 | 99 | 99 | > 1000 | 1 to 10 | 1 to 10 | 73 | 73 | – | –
3 | CCCCCCCCCCCCCCCC(=O)N[C@@H](CCC(=O)NCCCC[C@H](NC(=O)[C@H](CO)NC(=O)[C@@H]1CCCN1C(=O)[C@@H]1CCCN1C(=O)[C@@H]1CCCN1C(=O)[C@H](C)NC(=O)CNC(=O)[C@H](CO)NC(=O)[C@H](CO)NC(=O)[C@@H]1CCCN1C(=O)CNC(=O)CNC(=O)[C@H](C)NC(=O)[C@H](CC(C)C)NC(=O)[C@H](CC(C)C)NC(=O)[C@H](Cc1c[nH]c2ccccc12)NC(=O)[C@H](CC(N)=O)NC(=O)[C@@H](NC(=O)[C@H](Cc1ccccc1)NC(=O)[C@H](CCC(=O)O)NC(=O)C(C)(C)NC(=O)[C@H](C)NC(=O)[C@H](C)NC(=O)[C@H](CCC(N)=O)NC(=O)[C@H](CCCCN)NC(=O)[C@H](CC(=O)O)NC(=O)[C@H](CC(C)C)NC(=O)[C@H](Cc1ccc(O)cc1)NC(=O)[C@@H](NC(=O)[C@H](CO)NC(=O)[C@H](Cc1ccc(O)cc1)NC(=O)[C@H](CC(=O)O)NC(=O)[C@H](CO)NC(=O)[C@@H](NC(=O)[C@H](Cc1ccccc1)NC(=O)[C@@H](NC(=O)CNC(=O)[C@H](CCC(=O)O)NC(=O)CSCC(=O)NCCN1C(=O)SC(C)(C)C1=O)[C@@H](C)O)[C@@H](C)O)[C@@H](C)CC)C(C)C)C(N)=O)C(=O)O [Compound 94] | 1 to 10 | 1 to 10 | 89 | 89 | > 1000 | 1 to 10 | 1 to 10 | 46 | 46 | – | –
4 | CCCCCCCCCCCCCCCC(=O)N[C@@H](CCC(=O)NCCCC[C@H](NC(=O)[C@H](CO)NC(=O)[C@@H]1CCCN1C(=O)[C@@H]1CCCN1C(=O)[C@@H]1CCCN1C(=O)[C@H](C)NC(=O)CNC(=O)[C@H](CO)NC(=O)[C@H](CO)NC(=O)[C@@H]1CCCN1C(=O)CNC(=O)CNC(=O)[C@H](C)NC(=O)[C@H](CC(C)C)NC(=O)[C@H](CC(C)C)NC(=O)[C@H](Cc1c[nH]c2ccccc12)NC(=O)[C@H](CC(N)=O)NC(=O)[C@@H](NC(=O)[C@H](Cc1ccccc1)NC(=O)[C@H](CCC(=O)O)NC(=O)C(C)(C)NC(=O)[C@H](C)NC(=O)[C@H](C)NC(=O)[C@H](CCC(N)=O)NC(=O)[C@H](CCCCN)NC(=O)[C@H](CC(=O)O)NC(=O)[C@H](CC(C)C)NC(=O)[C@H](Cc1ccc(O)cc1)NC(=O)[C@@H](NC(=O)[C@H](CO)NC(=O)[C@H](Cc1ccc(O)cc1)NC(=O)[C@H](CC(=O)O)NC(=O)[C@H](CO)NC(=O)[C@@H](NC(=O)[C@H](Cc1ccccc1)NC(=O)[C@@H](NC(=O)CNC(=O)[C@H](CCC(=O)O)NC(=O)CSCC(=O)NCCN1C(=O)[C@H]2CC[C@H]2C1=O)[C@@H](C)O)[C@@H](C)O)[C@@H](C)CC)C(C)C)C(N)=O)C(=O)O [Compound 97] | 1 to 10 | 1 to 10 | 99 | 99 | > 1000 | 0.1 to 1 | 0.1 to 1 | 93 | 93 | – | –
5 | CCCCCCCCCCCCCCCC(=O)N[C@@H](CCC(=O)NCCCC[C@H](NC(=O)[C@H](CO)NC(=O)[C@@H]1CCCN1C(=O)[C@@H]1CCCN1C(=O)[C@@H]1CCCN1C(=O)[C@H](C)NC(=O)CNC(=O)[C@H](CO)NC(=O)[C@H](CO)NC(=O)[C@@H]1CCCN1C(=O)CNC(=O)CNC(=O)[C@H](C)NC(=O)[C@H](CC(C)C)NC(=O)[C@H](CC(C)C)NC(=O)[C@H](Cc1c[nH]c2ccccc12)NC(=O)[C@H](CC(N)=O)NC(=O)[C@@H](NC(=O)[C@H](Cc1ccccc1)NC(=O)[C@H](CCC(=O)O)NC(=O)C(C)(C)NC(=O)[C@H](C)NC(=O)[C@H](C)NC(=O)[C@H](CCC(N)=O)NC(=O)[C@H](CCCCN)NC(=O)[C@H](CC(=O)O)NC(=O)[C@H](CC(C)C)NC(=O)[C@H](Cc1ccc(O)cc1)NC(=O)[C@@H](NC(=O)[C@H](CO)NC(=O)[C@H](Cc1ccc(O)cc1)NC(=O)[C@H](CC(=O)O)NC(=O)[C@H](CO)NC(=O)[C@@H](NC(=O)[C@H](Cc1ccccc1)NC(=O)[C@@H](NC(=O)CNC(=O)[C@H](CCC(=O)O)NC(=O)CSCC(=O)NCCN1C(=O)CC(C)(C)C1=O)[C@@H](C)O)[C@@H](C)O)[C@@H](C)CC)C(C)C)C(N)=O)C(=O)O [Compound 104] | 1 to 10 | 1 to 10 | 104 to 106 | 104 to 106 | > 1000 | 1 to 10 | 1 to 10 | 43 to 47 | 43 to 47 | – | –
6 | CC[C@H](C)[C@H](NC(=O)[C@H](CO)NC(=O)[C@H](Cc1ccc(O)cc1)NC(=O)[C@H](CC(=O)O)NC(=O)[C@H](CO)NC(=O)[C@@H](NC(=O)[C@H](Cc1ccccc1)NC(=O)[C@@H](NC(=O)CNC(=O)[C@H](CCC(=O)O)NC(=O)CSCC(=O)NCCn1c(C)cc(C)cc1=O)[C@@H](C)O)[C@@H](C)O)C(=O)N[C@@H](Cc1ccc(O)cc1)C(=O)N[C@@H](CC(C)C)C(=O)N[C@@H](CC(=O)O)C(=O)N[C@@H](CCCCN)C(=O)N[C@@H](CCC(N)=O)C(=O)N[C@@H](C)C(=O)N[C@@H](C)C(=O)NC(C)(C)C(=O)N[C@@H](CCC(=O)O)C(=O)N[C@@H](Cc1ccccc1)C(=O)N[C@H](C(=O)N[C@@H](CC(N)=O)C(=O)N[C@@H](Cc1c[nH]c2ccccc12)C(=O)N[C@@H](CC(C)C)C(=O)N[C@@H](CC(C)C)C(=O)N[C@@H](C)C(=O)NCC(=O)NCC(=O)N1CCC[C@H]1C(=O)N[C@@H](CO)C(=O)N[C@@H](CO)C(=O)NCC(=O)N[C@@H](C)C(=O)N1CCC[C@H]1C(=O)N1CCC[C@H]1C(=O)N1CCC[C@H]1C(=O)N[C@@H](CO)C(=O)N[C@@H](CCCCN)C(N)=O)C(C)C [Compound 111] | 10 to 100 | 10 to 100 | 94 | 94 | > 1000 | 10 to 100 | 100 to 1000 | – | – | 12 | 12
